Experimental data from patent EP2832348B1, “METHOD FOR DISSOLVING FLAVONOID COMPOUND, CARBON GLYCOSIDE COMPOUND, OR STILBENE COMPOUND AND METHOD FOR PREPARING AN INJECTION OR A POWDER FOR INJECTION” (Kunming Pharmaceutical Corp., priority 2012, dated 2013).
Converted amounts (≈) assume the structure as drawn.

What was measured:
[1] = Solubility of triptophenolide in aqueous solutions with different concentrations of gastrodin and/or water-soluble cyclodextrin; format: physicochemical; settings: aqueous solution of solubilizer
From the text: Table 1. Solubility of triptophenolide in aqueous solutions with different concentrations of gastrodin and/or water-soluble cyclodextrin

[2] = Dissolving the compound with solubilizer in heated, vacuum-stirred water for injection under nitrogen or argon gas (preparation tank); format: physicochemical; settings: kept at 80 °C, nitrogen gas
Protocol: In view of this, the present invention provides a method for dissolving a carbon glycoside compound or a stilbene compound, characterized in that the method comprises the following steps: • heating water for injection to 80-98 °C, followed by stirring under vacuum condition at 30-80 °C, and then adding the carbon glycoside compound or the stilbene compound along with a solubilizer under the protection of nitrogen gas or argon gas to obtain a solution of said compounds; • wherein the solubilizer is one or a mixture of two or more of gastrodin, water-soluble cyclodextrin and ethanol, and wherein the water-soluble cyclodextrin is one or a mixture of two or more of methyl-β-cyclodextrin, thioether-β-cyclodextrin and sulfobutyl ether-β-cyclodextrin; and • wherein the mass ratio of the carbon glycoside compound or the stilbene compound to the solubilizer is 1:1-20.
Disclosed is a method for dissolving a flavonoid compound, a carbon glycoside compound or a stilbene compound, including: • mixing the flavonoid compound, the carbon glycoside compound or the stilbene compound with a solubilizer to obtain a reactant; and • heating water for injection to 80-98 °C, followed by stirring under vacuum conditions at 30-80 °C, and then adding the reactant under the protection of nitrogen gas or argon gas to obtain a solution of the reactant.
Considering the sensitivity to heat or light of the flavonoid compound, the carbon glycoside compound or the stilbene compound, a method is provided by heating water for injection to 80-98 °C to remove dissolved oxygen and other gases in water, which reduces the surface tension of water, increases the contact area of water with the flavonoid compound, the carbon glycoside compound or the stilbene compound, thus increasing the dissolution speed. Meanwhile, pre-heating the water for injection can effectively avoid degradation of the flavonoid compound, the carbon glycoside compound or the stilbene compound due to exposure to the dissolved oxygen, to eliminate unstable factors of the flavonoid compound, the carbon glycoside compound or the stilbene compound. The vacuum conditions can achieve further deoxygenation, facilitating the dissolution of the flavonoid compound, the carbon glycoside compound or the stilbene compound in water. Nitrogen gas or argon gas provides an inert atmosphere, which further reduces the surface tension of the materials, increases the contact area of the flavonoid compound, the carbon glycoside compound or the stilbene compound with water, and increases the dissolution speed.

Question: For `OC[C@H]1O[C@@H](Oc2cc(/C=C/c3cc(O)cc(O)c3)ccc2O)[C@H](O)[C@@H](O)[C@@H]1O`, which solubility ([1]; aqueous with cosolvent or surfactant or cyclodextrin, Gastrodin concentration 1 %) is on record?
Answer: 3.19 mg/mL (≈ 7.85 mM)

Question: And the solubility ([1]; aqueous with cosolvent or surfactant or cyclodextrin, Gastrodin concentration 3 %)?
Answer: 5.1 mg/mL (≈ 12.5 mM)

Question: And the solubility ([1]; aqueous with cosolvent or surfactant or cyclodextrin, Gastrodin concentration 5 %)?
Answer: 7.11 mg/mL (≈ 17.5 mM)

Question: What about the solubility ([1]; aqueous with cosolvent or surfactant or cyclodextrin, Gastrodin concentration 8 %) of the same compound?
Answer: 9.17 mg/mL (≈ 22.6 mM)

Question: And the solubility ([1]; aqueous with cosolvent or surfactant or cyclodextrin, Gastrodin concentration 10 %)?
Answer: 11.4 mg/mL (≈ 28.1 mM)

Question: And the solubility ([1]; aqueous with cosolvent or surfactant or cyclodextrin, Gastrodin concentration 15 %)?
Answer: 11.8 mg/mL (≈ 28.9 mM)

Question: What about the solubility ([1]; aqueous with cosolvent or surfactant or cyclodextrin, Gastrodin concentration 25 %) of the same compound?
Answer: 38.4 mg/mL (≈ 94.4 mM)

Question: And the solubility ([1]; aqueous with cosolvent or surfactant or cyclodextrin, Gastrodin concentration 30 %)?
Answer: 60.4 mg/mL (≈ 149 mM)

Question: What about the solubility ([1]; aqueous with cosolvent or surfactant or cyclodextrin, Gastrodin concentration 35 %) of the same compound?
Answer: 87.8 mg/mL (≈ 216 mM)

Question: And the solubility ([1]; aqueous with cosolvent or surfactant or cyclodextrin, Gastrodin concentration 40 %)?
Answer: 85.1 mg/mL (≈ 209 mM)

Question: What about the solubility ([1]; aqueous with cosolvent or surfactant or cyclodextrin, Gastrodin concentration 45 %) of the same compound?
Answer: 98 mg/mL (≈ 241 mM)

Question: What about the solubility ([1]; aqueous with cosolvent or surfactant or cyclodextrin, Gastrodin concentration 50 %) of the same compound?
Answer: 105 mg/mL (≈ 258 mM)

Question: And the solubility ([1]; aqueous with cosolvent or surfactant or cyclodextrin, Hydroxypropyl-β-cyclodextrin concentration 1 %)?
Answer: 4.8 mg/mL (≈ 11.8 mM)

Question: What about the solubility ([1]; aqueous with cosolvent or surfactant or cyclodextrin, Hydroxypropyl-β-cyclodextrin concentration 3 %) of the same compound?
Answer: 10.8 mg/mL (≈ 26.5 mM)

Question: And the solubility ([1]; aqueous with cosolvent or surfactant or cyclodextrin, Hydroxypropyl-β-cyclodextrin concentration 5 %)?
Answer: 20 mg/mL (≈ 49.3 mM)

Question: What about the solubility ([1]; aqueous with cosolvent or surfactant or cyclodextrin, Hydroxypropyl-β-cyclodextrin concentration 8 %) of the same compound?
Answer: 26.1 mg/mL (≈ 64.3 mM)

Question: What about the solubility ([1]; aqueous with cosolvent or surfactant or cyclodextrin, Hydroxypropyl-β-cyclodextrin concentration 10 %) of the same compound?
Answer: 34.1 mg/mL (≈ 83.9 mM)

Question: And the solubility ([1]; aqueous with cosolvent or surfactant or cyclodextrin, Hydroxypropyl-β-cyclodextrin concentration 15 %)?
Answer: 43.3 mg/mL (≈ 106 mM)

Question: And the solubility ([1]; aqueous with cosolvent or surfactant or cyclodextrin, Hydroxypropyl-β-cyclodextrin concentration 20 %)?
Answer: 59.2 mg/mL (≈ 146 mM)

Question: And the solubility ([1]; aqueous with cosolvent or surfactant or cyclodextrin, Hydroxypropyl-β-cyclodextrin concentration 25 %)?
Answer: 64.3 mg/mL (≈ 158 mM)

Question: And the solubility ([1]; aqueous with cosolvent or surfactant or cyclodextrin, Hydroxypropyl-β-cyclodextrin concentration 30 %)?
Answer: 116 mg/mL (≈ 286 mM)

Question: And the solubility ([1]; aqueous with cosolvent or surfactant or cyclodextrin, Hydroxypropyl-β-cyclodextrin concentration 35 %)?
Answer: 159 mg/mL (≈ 392 mM)

Question: And the solubility ([1]; aqueous with cosolvent or surfactant or cyclodextrin, Hydroxypropyl-β-cyclodextrin concentration 40 %)?
Answer: 189 mg/mL (≈ 464 mM)

Question: And the solubility ([1]; aqueous with cosolvent or surfactant or cyclodextrin, Hydroxypropyl-β-cyclodextrin concentration 45 %)?
Answer: 181 mg/mL (≈ 444 mM)

Question: What about the solubility ([1]; aqueous with cosolvent or surfactant or cyclodextrin, Hydroxypropyl-β-cyclodextrin concentration 50 %) of the same compound?
Answer: 183 mg/mL (≈ 451 mM)

Question: What about the solubility ([1]; aqueous with cosolvent or surfactant or cyclodextrin, Solubilizer concentration: Gastrodin 0 %, Hydroxypropyl-β-cyclodextrin 3 %) of the same compound?
Answer: 10.8 mg/mL (≈ 26.5 mM)

Question: And the solubility ([1]; aqueous with cosolvent or surfactant or cyclodextrin, Solubilizer concentration: Gastrodin 1 %, Hydroxypropyl-β-cyclodextrin 3 %)?
Answer: 14.8 mg/mL (≈ 36.4 mM)

Question: What about the solubility ([1]; aqueous with cosolvent or surfactant or cyclodextrin, Solubilizer concentration: Gastrodin 3 %, Hydroxypropyl-β-cyclodextrin 3 %) of the same compound?
Answer: 16.2 mg/mL (≈ 39.9 mM)

Question: And the solubility ([1]; aqueous with cosolvent or surfactant or cyclodextrin, Solubilizer concentration: Gastrodin 5 %, Hydroxypropyl-β-cyclodextrin 3 %)?
Answer: 22.6 mg/mL (≈ 55.6 mM)

Question: And the solubility ([1]; aqueous with cosolvent or surfactant or cyclodextrin, Solubilizer concentration: Gastrodin 8 %, Hydroxypropyl-β-cyclodextrin 3 %)?
Answer: 30.9 mg/mL (≈ 76.1 mM)

Question: And the solubility ([1]; aqueous with cosolvent or surfactant or cyclodextrin, Solubilizer concentration: Gastrodin 10 %, Hydroxypropyl-β-cyclodextrin 3 %)?
Answer: 39.8 mg/mL (≈ 98 mM)

Question: And the solubility ([1]; aqueous with cosolvent or surfactant or cyclodextrin, Solubilizer concentration: Gastrodin 15 %, Hydroxypropyl-β-cyclodextrin 3 %)?
Answer: 56 mg/mL (≈ 138 mM)

Question: What about the solubility ([1]; aqueous with cosolvent or surfactant or cyclodextrin, Solubilizer concentration: Gastrodin 20 %, Hydroxypropyl-β-cyclodextrin 3 %) of the same compound?
Answer: 107 mg/mL (≈ 264 mM)

Question: What about the solubility ([1]; aqueous with cosolvent or surfactant or cyclodextrin, Solubilizer concentration: Gastrodin 25 %, Hydroxypropyl-β-cyclodextrin 3 %) of the same compound?
Answer: 127 mg/mL (≈ 312 mM)

Question: And the solubility ([1]; aqueous with cosolvent or surfactant or cyclodextrin, Solubilizer concentration: Gastrodin 30 %, Hydroxypropyl-β-cyclodextrin 3 %)?
Answer: 181 mg/mL (≈ 446 mM)

Question: And the solubility ([1]; aqueous with cosolvent or surfactant or cyclodextrin, Solubilizer concentration: Gastrodin 35 %, Hydroxypropyl-β-cyclodextrin 3 %)?
Answer: 233 mg/mL (≈ 574 mM)

Question: And the solubility ([1]; aqueous with cosolvent or surfactant or cyclodextrin, Solubilizer concentration: Gastrodin 40 %, Hydroxypropyl-β-cyclodextrin 3 %)?
Answer: 197 mg/mL (≈ 485 mM)

Question: And the solubility ([1]; aqueous with cosolvent or surfactant or cyclodextrin, Solubilizer concentration: Gastrodin 45 %, Hydroxypropyl-β-cyclodextrin 3 %)?
Answer: 187 mg/mL (≈ 460 mM)

Question: And the solubility ([1]; aqueous with cosolvent or surfactant or cyclodextrin, Solubilizer concentration: Gastrodin 50 %, Hydroxypropyl-β-cyclodextrin 3 %)?
Answer: 188 mg/mL (≈ 463 mM)

Question: What about the solubility ([1]; water, Gastrodin concentration 0 %) of the same compound?
Answer: 1.75 mg/mL (≈ 4.31 mM)

Question: And the solubility ([1]; water, Hydroxypropyl-β-cyclodextrin concentration 0 %)?
Answer: 1.75 mg/mL (≈ 4.31 mM)

Question: What about the “dissolved in (time)” value ([2]; Example 35: 5 g with Gastrodin 80 g in 1000 ml, water heated to 95 °C, vacuum stirring 10 minutes) of the same compound?
Answer: about 5 minutes

Question: And the “dissolved in (time)” value ([2]; Example 36: 20 g with Gastrodin 200 g in 1000 ml, water heated to 95 °C, vacuum stirring 10 minutes)?
Answer: about 5 minutes

Question: And the “dissolved in (time)” value ([2]; Example 37: 10 g with Gastrodin 80 g in 1000 ml, water heated to 95 °C, vacuum stirring 10 minutes)?
Answer: about 5 minutes

Question: And the “dissolved in (time)” value ([2]; Example 38: 25 g with Gastrodin 80 g, Hydroxypropyl-β-cyclodextrin 30 g in 1000 ml, water heated to 95 °C, vacuum stirring 10 minutes)?
Answer: about 5 minutes

Question: What about the “dissolved in (time)” value ([2]; Example 47: 5 g with Methyl-β-cyclodextrin 30 g in 1000 ml, water heated to 88 °C, vacuum stirring 40 minutes) of the same compound?
Answer: about 5 minutes

Question: And the “dissolved in (time)” value ([2]; Example 51: 10 g with Methyl-β-cyclodextrin 30 g in 1000 ml, water heated to 95 °C, vacuum stirring 10 minutes)?
Answer: about 5 minutes

Question: And the “dissolved in (time)” value ([2]; Example 52: 10 g with Thioether-β-cyclodextrin 30 g in 1000 ml, water heated to 95 °C, vacuum stirring 10 minutes)?
Answer: about 5 minutes

Question: What about the “dissolved in (time)” value ([2]; Example 55: 10 g with Methyl-β-cyclodextrin 50 g in 1000 ml, water heated to 95 °C, vacuum stirring 10 minutes) of the same compound?
Answer: about 5 minutes

Question: What about the “dissolved in (time)” value ([2]; Example 58: 20 g with Hydroxypropyl-β-cyclodextrin 50 g in 1000 ml, water heated to 95 °C, vacuum stirring 10 minutes) of the same compound?
Answer: about 5 minutes

Question: What about the “dissolved in (time)” value ([2]; Example 59: 20 g with Methyl-β-cyclodextrin 50 g in 1000 ml, water heated to 95 °C, vacuum stirring 10 minutes) of the same compound?
Answer: about 5 minutes

Question: What about the “dissolved in (time)” value ([2]; Example 61: 20 g with Sulfobutyl ether-β-cyclodextrin 50 g in 1000 ml, water heated to 95 °C, vacuum stirring 10 minutes) of the same compound?
Answer: about 5 minutes

Question: What about the “dissolved in (time)” value ([2]; Example 63: 5 g with Gastrodin 100 g in 1000 ml, water heated to 95 °C, vacuum stirring 10 minutes) of the same compound?
Answer: about 5 minutes

Question: And the “dissolved in (time)” value ([2]; Example 65: 5 g with Gastrodin 100 g in 1000 ml, water heated to 95 °C, vacuum stirring 10 minutes)?
Answer: about 5 minutes

Question: What about the “dissolved in (time)” value ([2]; Example 68: 50 g with Hydroxypropyl-β-cyclodextrin 80 g in 1000 ml, water heated to 95 °C, vacuum stirring 10 minutes) of the same compound?
Answer: about 5 minutes

Question: What about the “dissolved in (time)” value ([2]; Example 69: 50 g with Methyl-β-cyclodextrin 80 g in 1000 ml, water heated to 95 °C, vacuum stirring 10 minutes) of the same compound?
Answer: about 5 minutes

Question: What about the “dissolved in (time)” value ([2]; Example 70: 50 g with Thioether-β-cyclodextrin 80 g in 1000 ml, water heated to 95 °C, vacuum stirring 10 minutes) of the same compound?
Answer: about 5 minutes

Question: And the “dissolved in (time)” value ([2]; Example 71: 50 g with Sulfobutyl ether-β-cyclodextrin 80 g (formula; text: hydroxypropyl-β-cyclodextrin) in 1000 ml, water heated to 95 °C, vacuum stirring 10 minutes)?
Answer: about 5 minutes

Question: What about the “dissolved in (time)” value ([2]; Example 72: 50 g with Hydroxypropyl-β-cyclodextrin 80 g in 1000 ml, water heated to 95 °C, vacuum stirring 10 minutes) of the same compound?
Answer: about 5 minutes

Question: What about the “dissolved in (time)” value ([2]; Example 73: 50 g with Hydroxypropyl-β-cyclodextrin 80 g in 1000 ml, water heated to 95 °C, vacuum stirring 10 minutes) of the same compound?
Answer: about 5 minutes

Question: What about the “dissolved in (time)” value ([2]; Example 74: 5 g with Gastrodin 0.5 g in 1000 ml, water heated to 95 °C, vacuum stirring 10 minutes) of the same compound?
Answer: about 5 minutes

Question: And the “dissolved in (time)” value ([2]; Example 80: 10 g with Hydroxypropyl-β-cyclodextrin 30 g in 1000 ml, water heated to 95 °C, vacuum stirring 10 minutes)?
Answer: about 5 minutes
